SMILES strings stand for the structures.

We go through ten molecules from US8288410B2, “3-substituted quinolinium and 7H-indolo[2,3-c]quinolinium salts as new antiinfectives” (Florida Agricultural and Mechanical University, priority 2008, dated 2012).

The subject of data set [1] is Cryptococcus neoformans ATCC 90113. The data set is described as follows: Antifungal susceptibility testing, Cryptococcus neoformans. To be noted: Table 1. The class given is cell-based. Here is the method: (§1) Using standard susceptibility tests, the compounds of the invention were determined to be active against MRSA, C. neoformans and several other bacteria, fungi and protozoa. More specifically, the antibacterial and antifungal testing was carried out in the following manner. Cryptococcus neoformans ATCC 90113 and MRSA were obtained from the American Type Culture Collection (Manassas. Va.). Several others including Candida albicans ATTC 90028, Aspergillus fumigatus ATCC 90906 and Mycobacterium intracellulare (M. intracellulare) ATCC 23086 were also procured. Susceptibility testing was performed using a modified version of the National Committee for Clinical Laboratory Standards method. M. intracellulare was tested using a modified method of Franzblau, et al., J. Clin. Microbiol., 1998, 36, 362-366. DMSO solutions of samples were serially diluted in saline, and transferred in duplicate to 96 well microplates. Microbial suspensions were diluted in the broth to afford desired colony forming units/mL according to the 0.5 McFarland Standard [C. Albicans: either Saboraud Dextrose broth (SDB) or RPMI 1640, C. neoformans: SDB, A fumigatus: either YM broth (for MICS) or RPMI-1640+5% Alamar Blue.] After adding microbial cultures to the sampled afforded a final volume of 200 μL and final test concentration starting with 20 μg/mL, plates were read prior to and after final incubation using either fluorescence at 544ex/590em (M intracellulare, A. fumigatus) using the Polarstar galaxy reader (Biotek Instruments, Vermont). Growth (saline only), solvent and blank (media only) controls were included on each test plate. Drug controls [Ciprofloxacin (ICN Biomedicals, Ohio) for bacteria and Amphotericin B (ICN Biomedicals, Ohio) for fungi] were included in each assay. Percent growth was calculated and plotted versus test concentration to afford IC50 (sample concentration that affords 50% inhibition or growth of the organism). The minimum inhibitory concentration (MIC) was determined by visually inspecting the plate, and is defined as the lowest test concentration that allows no detectable growth (for Almar Blue assays, no color change from blue to pink).

The next data set relates to MRSA. The data set is described as follows: Antibacterial susceptibility testing, MRSA. The class given is cell-based, methicillin resistant Staphylococcus aureus. As to conditions: Table 1. How it is done: as §1
Data set [2] concerns Candida albicans ATTC 90028. The experiment in a line: Antifungal susceptibility testing, Candida albicans. Format: cell-based. As to conditions: Table 1. How it is done:
as §1

The test system of data set [3] is Aspergillus fumigatus ATCC 90906. The data set is described as follows: Antifungal susceptibility testing, Aspergillus fumigatus. The class given is cell-based. As to conditions: Table 1; Aspergillus fumigatus. How it is done: as §1

As to `Fc1ccccc1Sc1cc2ccccc2[n+](CCCCCc2ccccc2)c1.[I-]` [XYZ-IV-19], in data set [1], the “Cn IC50” value came out at 0.25 µg/mL, the “Cn MFC” value stood at 2.5 µg/mL and the “Cn MIC” value is 0.63 µg/mL. In addition, in the data set on MRSA, the “MRS IC50” value worked out at 0.40 µg/mL, the “MRS MFC” value was found to be 5.0 µg/mL and the “MRS MIC” value was 0.63 µg/mL. For the same molecule, in data set [2], the “Ca IC50” value worked out at 2.5 µg/mL, the “Ca MFC” value was found to be 20 µg/mL and the “Ca MIC” value was 10 µg/mL. In addition, in data set [3], the “A fu IC50” value was found to be 0.20 µg/mL, the “A fu MFC” value is on record as “— ((-) = >20 μg/mL)” and the “A fu MIC” value was determined as 0.31 µg/mL.
On to `COc1cccc(Sc2cc3ccccc3[n+](CCCCCc3ccccc3)c2)c1.[I-]` [XYZ-IV-20], for which, in data set [1], the “Cn IC50” value turned out to be 1.5 µg/mL, the “Cn MFC” value came out at 10 µg/mL and the “Cn MIC” value is 2.5 µg/mL. For the same molecule, in the data set on MRSA, the “MRS IC50” value came to 0.70 µg/mL, the “MRS MFC” value worked out at 10 µg/mL and the “MRS MIC” value was found to be 1.3 µg/mL. Moreover, in data set [2], the “Ca IC50” value is 7.0 µg/mL, the “Ca MFC” value is reported as “— ((-) = >20 μg/mL)” and the “Ca MIC” value was 20 µg/mL. Moreover, in data set [3], the “A fu IC50” value came to 0.55 µg/mL, the “A fu MFC” value is reported as “— ((-) = >20 μg/mL)” and the “A fu MIC” value was 1.3 µg/mL.
`Fc1cccc(Sc2cc3ccccc3[n+](CCCCCc3ccccc3)c2)c1.[I-]` [XYZ-IV-21]: in data set [1], the “Cn IC50” value amounted to 0.40 µg/mL, the “Cn MFC” value came out at 2.5 µg/mL and the “Cn MIC” value is 0.63 µg/mL. Moreover, in the data set on MRSA, the “MRS IC50” value was determined as 0.20 µg/mL, the “MRS MFC” value turned out to be 20 µg/mL and the “MRS MIC” value worked out at 0.63 µg/mL. In data set [2], the “Ca IC50” value amounted to 3.0 µg/mL, the “Ca MFC” value amounted to 20 µg/mL and the “Ca MIC” value came to 10 µg/mL. In data set [3], the “A fu IC50” value was found to be 0.10 µg/mL, the “A fu MFC” value is “— ((-) = >20 μg/mL)” and the “A fu MIC” value amounted to 0.16 µg/mL.
In the case of `FC(F)(F)c1ccccc1Sc1cc2ccccc2[n+](CCCCCc2ccccc2)c1.[I-]` [XYZ-IV-25], in data set [1], the “Cn IC50” value came out at 0.06 µg/mL, the “Cn MFC” value came to 0.63 µg/mL and the “Cn MIC” value came to 0.16 µg/mL. Further, in the data set with MRSA, the “MRS IC50” value came out at 0.05 µg/mL, the “MRS MFC” value worked out at 2.5 µg/mL and the “MRS MIC” value is 0.16 µg/mL. In data set [2], the “Ca IC50” value stood at 0.4 µg/mL, the “Ca MFC” value is 2.5 µg/mL and the “Ca MIC” value came out at 1.3 µg/mL. In data set [3], the “A fu IC50” value came out at 0.03 µg/mL, the “A fu MFC” value is 10 µg/mL and the “A fu MIC” value came out at 0.08 µg/mL.
`[I-].[O-][S+](c1ccccc1)c1cc2ccccc2[n+](CCCCCc2ccccc2)c1` (stereo not drawn) [XYZ-IV-79]: in data set [1], the “Cn MFC” value is “— ((-) = >20 μg/mL)” and the “Cn MIC” value was “— ((-) = >20 μg/mL)”. In the data set with MRSA, the “MRS IC50” value was determined as 1.5 µg/mL, the “MRS MFC” value is “— ((-) = >20 μg/mL)” and the “MRS MIC” value turned out to be 5.0 µg/mL. Also, in data set [2], the “Ca IC50” value is “— ((-) = >20 μg/mL)”, the “Ca MFC” value is listed as “— ((-) = >20 μg/mL)” and the “Ca MIC” value is “— ((-) = >20 μg/mL)”. In data set [3], the “A fu IC50” value is listed as “— ((-) = >20 μg/mL)”, the “A fu MFC” value is given as “— ((-) = >20 μg/mL)” and the “A fu MIC” value is “— ((-) = >20 μg/mL)”.
`[I-].[O-][S+](c1ccc(F)cc1)c1cc2ccccc2[n+](CCCCCc2ccccc2)c1` (stereo not drawn) [XYZ-IV-84]: in data set [1], the “Cn MFC” value is on record as “— ((-) = >20 μg/mL)” and the “Cn MIC” value is “— ((-) = >20 μg/mL)”. Moreover, in the data set on MRSA, the “MRS IC50” value is 0.80 µg/mL, the “MRS MFC” value is 20 µg/mL and the “MRS MIC” value amounted to 5.0 µg/mL. In data set [2], the “Ca IC50” value was “— ((-) = >20 μg/mL)”, the “Ca MFC” value is “— ((-) = >20 μg/mL)” and the “Ca MIC” value is “— ((-) = >20 μg/mL)”. In addition, in data set [3], the “A fu IC50” value is recorded as “— ((-) = >20 μg/mL)”, the “A fu MFC” value was “— ((-) = >20 μg/mL)” and the “A fu MIC” value is “— ((-) = >20 μg/mL)”.
As to `[I-].[O-][S+](c1cccc(C(F)(F)F)c1)c1cc2ccccc2[n+](CCCCCc2ccccc2)c1` (stereo not drawn) [XYZ-IV-87], in data set [1], the “Cn IC50” value is 6.5 µg/mL, the “Cn MFC” value turned out to be 20 µg/mL and the “Cn MIC” value stood at 20 µg/mL. In addition, in the data set with MRSA, the “MRS IC50” value worked out at 0.25 µg/mL, the “MRS MFC” value is 20 µg/mL and the “MRS MIC” value came to 1.3 µg/mL. Moreover, in data set [2], the “Ca IC50” value is on record as “— ((-) = >20 μg/mL)”, the “Ca MFC” value was “— ((-) = >20 μg/mL)” and the “Ca MIC” value is on record as “— ((-) = >20 μg/mL)”. In data set [3], the “A fu IC50” value is on record as “— ((-) = >20 μg/mL)”, the “A fu MFC” value was “— ((-) = >20 μg/mL)” and the “A fu MIC” value is listed as “— ((-) = >20 μg/mL)”.
On to `[I-].[O-][S+](c1cc2ccccc2[n+](CCCCCc2ccccc2)c1)c1ccccc1C(F)(F)F` (stereo not drawn) [XYZ-IV-90], for which, in data set [1], the “Cn IC50” value was found to be 5.5 µg/mL, the “Cn MFC” value is recorded as “— ((-) = >20 μg/mL)” and the “Cn MIC” value worked out at 20 µg/mL. For the same molecule, in the data set with MRSA, the “MRS IC50” value was 0.25 µg/mL, the “MRS MFC” value was found to be 10 µg/mL and the “MRS MIC” value came out at 0.63 µg/mL. In addition, in data set [2], the “Ca IC50” value came out at 15 µg/mL, the “Ca MFC” value is given as “— ((-) = >20 μg/mL)” and the “Ca MIC” value was “— ((-) = >20 μg/mL)”. For the same molecule, in data set [3], the “A fu IC50” value is reported as “— ((-) = >20 μg/mL)”, the “A fu MFC” value is on record as “— ((-) = >20 μg/mL)” and the “A fu MIC” value is “— ((-) = >20 μg/mL)”.
Consider `[I-].[O-][S+](c1cc2ccccc2[n+](CCCCCc2ccccc2)c1)c1ccccc1Br` (stereo not drawn) [XYZ-IV-98], for which, in data set [1], the “Cn IC50” value worked out at 5.5 µg/mL, the “Cn MFC” value is reported as “— ((-) = >20 μg/mL)” and the “Cn MIC” value was 20 µg/mL. In the data set on MRSA, the “MRS IC50” value was 0.35 µg/mL, the “MRS MFC” value is “— ((-) = >20 μg/mL)” and the “MRS MIC” value came out at 1.3 µg/mL. In data set [2], the “Ca IC50” value is given as “— ((-) = >20 μg/mL)”, the “Ca MFC” value was “— ((-) = >20 μg/mL)” and the “Ca MIC” value is on record as “— ((-) = >20 μg/mL)”. In addition, in data set [3], the “A fu IC50” value worked out at 15 µg/mL, the “A fu MFC” value is “— ((-) = >20 μg/mL)” and the “A fu MIC” value is on record as “— ((-) = >20 μg/mL)”.
On to `[I-].[O-][S+](c1cc2ccccc2[n+](CCCCCc2ccccc2)c1)c1ccccc1F` (stereo not drawn) [XYZ-IV-100], for which, in data set [1], the “Cn MFC” value is recorded as “— ((-) = >20 μg/mL)” and the “Cn MIC” value is “— ((-) = >20 μg/mL)”. In the data set on MRSA, the “MRS IC50” value came out at 1.5 µg/mL, the “MRS MFC” value is recorded as “— ((-) = >20 μg/mL)” and the “MRS MIC” value amounted to 5.0 µg/mL. In addition, in data set [2], the “Ca IC50” value is recorded as “— ((-) = >20 μg/mL)”, the “Ca MFC” value is on record as “— ((-) = >20 μg/mL)” and the “Ca MIC” value was “— ((-) = >20 μg/mL)”. Also, in data set [3], the “A fu IC50” value is “— ((-) = >20 μg/mL)”, the “A fu MFC” value was “— ((-) = >20 μg/mL)” and the “A fu MIC” value is reported as “— ((-) = >20 μg/mL)”.
